This passage reports IC50 results from patent publication US12172983B2, “EGFR inhibitors” (Blueprint Medicines Corporation, priority 2019, dated 2024).

pIC50: −log10 of the molar value. Where two headings read alike, the source gives them in different places. A value given as a limit tells only on which side of the number the result lay.

One assay concerns the target T1, EGFR (L858R T790M C797S) (Homo sapiens, UniProt P00533, C797S/L858R/T790M).
T1 construct: purchased SignalChem E10-122VG
As to the kind of experiment: Biochemical EGFR inhibition assay (Caliper mobility shift), EGFR LRTMCS mutant. To be noted: inhibitory activity against EGFR LRTMCS mutant; apparent IC50; read-out: Ext Enz LRTMCS. The procedure, abridged: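 Caliper mobility shift read-out: product and substrate peptides separated by electrophoresis and quantified. Reactions at 25° C. taken to 10–20% peptide phosphorylation, quenched with 35 mM EDTA. Apparent IC50 from percent activity vs log [compound].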

Assay [1] concerns phosphorylation of EGFR (Tyr1068) in NCI-H1975 cell line that harbors the EGFR L858R T790M mutations. Description: NCI-H1975 pEGFR AlphaLISA assay. To be noted: 4-5 hours incubation, read-out: Ext pEGFR H1975. Type of assay: cell-based. Put shortly:
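NCI-H1975 cells (EGFR L858R/T790M) seeded overnight, then treated with compound for 4-5 h at 37 °C/5% CO2. After lysis, p-EGFR (Tyr1068) quantified by AlphaLISA SureFire Ultra with acceptor then donor beads; IC50 fitted from percent inhibition versus log concentration.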
On the technique in general: Alpha assays give light when donor and acceptor beads are brought close together.

[2] abbreviates: Homo sapiens, NCI-H1975, inhibition of phosphorylation of mutant EGFR in NCI-H1975 cells.
[3] abbreviates: inhibition of phosphorylation of mutant EGFR in NCI-H1975 cells.

T1 sequence (P00533 25-1210 T790M/C797S/L858R): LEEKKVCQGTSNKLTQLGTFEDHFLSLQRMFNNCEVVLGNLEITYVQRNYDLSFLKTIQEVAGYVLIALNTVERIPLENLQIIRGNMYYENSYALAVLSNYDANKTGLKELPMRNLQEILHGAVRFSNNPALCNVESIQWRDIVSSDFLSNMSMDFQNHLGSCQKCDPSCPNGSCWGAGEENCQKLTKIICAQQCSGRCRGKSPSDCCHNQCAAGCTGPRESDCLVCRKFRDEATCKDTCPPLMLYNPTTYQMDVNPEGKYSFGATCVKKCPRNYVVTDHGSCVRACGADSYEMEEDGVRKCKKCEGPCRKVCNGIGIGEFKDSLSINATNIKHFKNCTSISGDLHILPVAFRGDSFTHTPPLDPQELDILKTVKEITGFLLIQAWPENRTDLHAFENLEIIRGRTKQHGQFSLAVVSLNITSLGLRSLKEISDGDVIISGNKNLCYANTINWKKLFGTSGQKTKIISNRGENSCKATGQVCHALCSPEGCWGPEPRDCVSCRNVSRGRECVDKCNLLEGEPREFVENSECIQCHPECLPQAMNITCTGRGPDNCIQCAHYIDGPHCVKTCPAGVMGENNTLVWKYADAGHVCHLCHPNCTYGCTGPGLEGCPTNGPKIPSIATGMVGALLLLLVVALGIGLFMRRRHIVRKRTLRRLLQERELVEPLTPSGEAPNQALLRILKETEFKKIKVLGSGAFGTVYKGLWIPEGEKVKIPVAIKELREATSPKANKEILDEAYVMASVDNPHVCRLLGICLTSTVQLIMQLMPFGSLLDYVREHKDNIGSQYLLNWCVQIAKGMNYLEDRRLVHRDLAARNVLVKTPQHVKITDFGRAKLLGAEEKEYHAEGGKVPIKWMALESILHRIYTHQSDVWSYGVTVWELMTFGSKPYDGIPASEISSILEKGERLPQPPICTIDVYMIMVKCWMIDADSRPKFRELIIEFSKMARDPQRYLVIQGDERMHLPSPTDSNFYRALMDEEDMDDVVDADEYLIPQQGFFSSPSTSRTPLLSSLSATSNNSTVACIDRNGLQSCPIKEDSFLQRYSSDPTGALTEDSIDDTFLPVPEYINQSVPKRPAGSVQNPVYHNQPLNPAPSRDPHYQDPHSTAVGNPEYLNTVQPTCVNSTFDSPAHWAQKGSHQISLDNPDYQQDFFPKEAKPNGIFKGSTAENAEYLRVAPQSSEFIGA

For the compound `CC1(C)CN(c2nccc(Nc3cc4c(F)cc(F)c(N5CC(CS(C)(=O)=O)C5)c4cn3)n2)C[C@@H](F)[C@H]1O` (single isomer, unassigned) [Compound 86, (4S,5R)-1-[4-[[5,7-difluoro-8-[3-(methylsulfonylmethyl)azetidin-1-yl]-3-isoquinolyl]amino]pyrimidin-2-yl]-5-fluoro-3,3-dimethyl-piperidin-4-ol or (4R,5S)-1-[4-[[5,7-difluoro-8-[3-(methylsulfonylmethyl)azetidin-1-yl]-3-isoquinolyl]amino]pyrimidin-2-yl]-5-fluoro-3,3-dimethyl-piperidin-4-ol], the pIC50 on EGFR (L858R T790M C797S) is 7.52 to 7.70; in assay [1] (setting [2]), 7.30 to 7.52.
As to `CC(C)c1ccc(N2C[C@H](CS(C)(=O)=O)[C@H]2C)c2cnc(Nc3ccnc(N4CC[C@@H](OCCN(C)C)C(F)(F)C4)n3)cc12` (single isomer, unassigned) [Compound 305, N-{2-[(4S)-4-[2-(dimethylamino)ethoxy]-3,3-difluoropiperidin-1-yl]pyrimidin-4-yl}-8-[(2R,3S)-3-(methanesulfonylmethyl)-2-methylazetidin-1-yl]-5-(propan-2-yl)isoquinolin-3-amine or N-{2-[(4R)-4-[2-(dimethylamino)ethoxy]-3,3-difluoropiperidin-1-yl]pyrimidin-4-yl}-8-[(2R,3S)-3-(methanesulfonylmethyl)-2-methylazetidin-1-yl]-5-(propan-2-yl)isoquinolin-3-amine], the pIC50 on EGFR (L858R T790M C797S) was not below 7.82; in assay [1] (setting [3]) it was not below 8.00.
Turning to `CC(C)c1ccc(N2CC(CS(C)(=O)=O)C2)c2cnc(Nc3ccnc(N4CC[C@](C)(O)[C@H](F)C4)n3)cc12` (single isomer, unassigned) [Compound 57], the pIC50 on EGFR (L858R T790M C797S) is not below 7.82; in assay [1] (setting [2]), 7.70 to 8.00.
Regarding `CCS(=O)(=O)C[C@H]1CN(c2cnc(C(C)C)c3cc(Nc4ccnc(N5CC[C@H](OCCO)[C@H](F)C5)n4)ncc23)[C@@H]1C` [Compound 299, 2-{[(3R,4S)-1-[4-({8-[(2R,3S)-3-[(ethanesulfonyl)methyl]-2-methylazetidin-1-yl]-5-(propan-2-yl)-2,6-naphthyridin-3-yl}amino)pyrimidin-2-yl]-3-fluoropiperidin-4-yl]oxy}ethan-1-ol], the pIC50 on EGFR (L858R T790M C797S) was not below 7.82; in assay [1] (setting [2]), not below 8.00.
On to `CO[C@H]1CCN(c2nccc(Nc3cc4c(C(C)C)ccc(N5CC(CS(C)(=O)=O)C5)c4cn3)n2)C[C@H]1F` [Compound 63, N-(2-((3R,4S)-3-fluoro-4-methoxypiperidin-1-yl)pyrimidin-4-yl)-5-isopropyl-8-(3-(methylsulfonylmethyl)azetidin-1-yl)isoquinolin-3-amine], for which the figures for the pIC50 (on EGFR (L858R T790M C797S); in assay [1] (setting [2])) were not below 7.82 and not below 8.00, respectively.
In the same order, the values of `CC1(C)CN(c2nccc(Nc3cc4ccnc(N5CC(CS(C)(=O)=O)C5)c4cn3)n2)C[C@@H](F)[C@H]1O` (single isomer, unassigned) [Compound 6, (4S,5R)-5-fluoro-1-[4-({8-[3-(methanesulfonylmethyl)azetidin-1-yl]-2,7-naphthyridin-3-yl}amino)pyrimidin-2-yl]-3,3-dimethylpiperidin-4-ol or (4R,5S)-5-fluoro-1-[4-({8-[3-(methanesulfonylmethyl)azetidin-1-yl]-2,7-naphthyridin-3-yl}amino)pyrimidin-2-yl]-3,3-dimethylpiperidin-4-ol] are not below 7.82 and 7.52 to 7.70.
Consider `CC(C)c1ccc(N2C[C@H](CS(C)(=O)=O)[C@H]2C)c2cnc(Nc3ccnc(N4CC[C@](F)(CO)C4)n3)cc12` (single isomer, unassigned) [Compound 271, [(3S)-3-fluoro-1-[4-({8-[(2R,3S)-3-(methanesulfonylmethyl)-2-methylazetidin-1-yl]-5-(propan-2-yl)isoquinolin-3-yl}amino)pyrimidin-2-yl]pyrrolidin-3-yl]methanol or [(3R)-3-fluoro-1-[4-({8-[(2R,3S)-3-(methanesulfonylmethyl)-2-methylazetidin-1-yl]-5-(propan-2-yl)isoquinolin-3-yl}amino)pyrimidin-2-yl]pyrrolidin-3-yl]methanol], for which the pIC50 was not below 7.82 at EGFR (L858R T790M C797S) and not below 8.00 in assay [1] (setting [3]).
`CC(C)c1ccc(N2C[C@H](CS(C)(=O)=O)[C@H]2C)c2cnc(Nc3ccnc(N4CC[C@H](O)C[C@H]4C)n3)cc12` (single isomer, unassigned) [Compound 49, (2R,4S)-1-[4-({8-[(2R,3S)-3-(methanesulfonylmethyl)-2-methylazetidin-1-yl]-5-(propan-2-yl)isoquinolin-3-yl}amino)pyrimidin-2-yl]-2-methylpiperidin-4-ol or (2S,4R)-1-[4-({8-[(2R,3S)-3-(methanesulfonylmethyl)-2-methylazetidin-1-yl]-5-(propan-2-yl)isoquinolin-3-yl}amino)pyrimidin-2-yl]-2-methylpiperidin-4-ol]: the pIC50 is not below 7.82 at EGFR (L858R T790M C797S) and not below 8.00 in assay [1] (setting [2]).
`CC(C)c1cnc(N2CC(CS(=O)(=O)C(F)(F)F)C2)c2cnc(Nc3ccnc(N4CC[C@@H](O)[C@@](C)(F)C4)n3)cc12` (single isomer, unassigned) [Compound 237]: the results for the pIC50 (on EGFR (L858R T790M C797S); in assay [1] (setting [2])) were 7.00 to 7.52 and 7.52 to 7.70, respectively.
Take `CO[C@H]1CCN(c2nccc(Nc3cc4c(C(C)C)ccc(N5C[C@H](CS(C)(=O)=O)[C@H]5C)c4cn3)n2)C[C@H]1C#N` (single isomer, unassigned) [Compound 164, (3S,4S)-1-[4-({8-[(2R,3S)-3-(methanesulfonylmethyl)-2-methylazetidin-1-yl]-5-(propan-2-yl)isoquinolin-3-yl}amino)pyrimidin-2-yl]-4-methoxypiperidine-3-carbonitrile or (3R,4R)-1-[4-({8-[(2R,3S)-3-(methanesulfonylmethyl)-2-methylazetidin-1-yl]-5-(propan-2-yl)isoquinolin-3-yl}amino)pyrimidin-2-yl]-4-methoxypiperidine-3-carbonitrile]: the pIC50 at EGFR (L858R T790M C797S) is 7.70 to 7.82; in assay [1] (setting [3]), not below 8.00.
With `CNCCO[C@@H]1CCN(c2nccc(Nc3cc4c(C(C)C)ccc(N5C[C@H](CS(C)(=O)=O)[C@H]5C)c4cn3)n2)CC1(F)F` (single isomer, unassigned) [Compound 300, N-{2-[(4R)-3,3-difluoro-4-[2-(methylamino)ethoxy]piperidin-1-yl]pyrimidin-4-yl}-8-[(2R,3S)-3-(methanesulfonylmethyl)-2-methylazetidin-1-yl]-5-(propan-2-yl)isoquinolin-3-amine or N-{2-[(4S)-3,3-difluoro-4-[2-(methylamino)ethoxy]piperidin-1-yl]pyrimidin-4-yl}-8-[(2R,3S)-3-(methanesulfonylmethyl)-2-methylazetidin-1-yl]-5-(propan-2-yl)isoquinolin-3-amine], the pIC50 at EGFR (L858R T790M C797S) is not below 7.82; in assay [1] (setting [2]) it was not below 8.00.
With `CO[C@H]1CCN(c2nccc(Nc3cc4c(C(C)C)ccc(N5C[C@H](CS(C)(=O)=O)[C@H]5C)c4cn3)n2)C[C@@H]1O` (single isomer, unassigned) [Compound 92, (3S,4S)-1-(4-(5-isopropyl-8-(2R,3S)-2-methyl-3-(methylsulfonylmethyl)azetidin-1-yl)isoquinolin-3-ylamino)pyrimidin-2-yl)-4-methoxypiperidin-3-ol or (3R,4R)-1-(4-(5-isopropyl-8-((2R,3S)-2-methyl-3-(methylsulfonylmethyl)azetidin-1-yl)isoquinolin-3-ylamino)pyrimidin-2-yl)-4-methoxypiperidin-3-ol], the pIC50 at EGFR (L858R T790M C797S) is not below 7.82; in assay [1] (setting [2]), not below 8.00.
